# Experimental data: ChEMBL document CHEMBL1201862, “PubChem BioAssay data set” (2004)
#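 96-well plates; 48 h exposure; 5 concentrations. Endpoints by linear interpolation between flanking doses. Not reached: highest tested concentration assigned. GI50 marks 50% less growth.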 The source made the active and inactive calls. Rule as the data show it: active = GI50 up to about 1.1 µM and inactive = higher.
# What was measured:
# Experiment in all cases: inhibition of tumour cell growth, NCI panel, 48 h
# A549 = system: A549
# DU-145 = system: DU-145
# HCC 2998 = system: HCC 2998
# HL-60 = system: HL-60
# IGROV-1 = system: IGROV-1
# MCF7 = system: MCF7
# MDA-MB-231 = system: MDA-MB-231
# NCI-H23 = system: NCI-H23
# NCI-H460 = system: NCI-H460
# NCI-H522 = system: NCI-H522
# OVCAR-5 = system: OVCAR-5
# PC-3 = system: PC-3
# SK-MEL-28 = system: SK-MEL-28
# SK-MEL-5 = system: SK-MEL-5
# SNB-19 = system: SNB-19
# TK-10 = system: TK-10
# U-251 = system: U-251
# UACC-62 = system: UACC-62
# UO-31 = system: UO-31
# SK-OV-3 = system: SK-OV-3
SMILES,GI50 (A549),GI50 (DU-145),GI50 (HCC 2998),GI50 (HL-60),GI50 (IGROV-1),GI50 (MCF7),GI50 (MDA-MB-231),GI50 (NCI-H23),GI50 (NCI-H460),GI50 (NCI-H522),GI50 (OVCAR-5),GI50 (PC-3),GI50 (SK-MEL-28),GI50 (SK-MEL-5),GI50 (SNB-19),GI50 (TK-10),GI50 (U-251),GI50 (UACC-62),GI50 (UO-31),GI50 (SK-OV-3)
O=C(/C=C/c1ccc(Cl)c(Cl)c1)Oc1ccc(/C=C2\CCCCC2=O)cc1,> 100 µM (inactive),> 100 µM (inactive),> 100 µM (inactive),25.4 µM (inactive),> 100 µM (inactive),> 100 µM (inactive),> 100 µM (inactive),> 100 µM (inactive),> 100 µM (inactive),91.8 µM (inactive),> 100 µM (inactive),> 100 µM (inactive),> 100 µM (inactive),> 100 µM (inactive),> 100 µM (inactive),> 100 µM (inactive),> 100 µM (inactive),> 100 µM (inactive),> 100 µM (inactive),
O=c1c2ccccc2oc2nc3n(c(=O)c12)CCCS3,> 100 µM (inactive),> 100 µM (inactive),> 100 µM (inactive),,> 100 µM (inactive),> 100 µM (inactive),> 100 µM (inactive),> 100 µM (inactive),> 100 µM (inactive),> 100 µM (inactive),> 100 µM (inactive),> 100 µM (inactive),> 100 µM (inactive),> 100 µM (inactive),> 100 µM (inactive),> 100 µM (inactive),> 100 µM (inactive),> 100 µM (inactive),15.7 µM (inactive),> 100 µM (inactive)
CCN(CC)CCCNc1ccc2ncn3c4ccc(O)cc4c(=O)c1c23,0.231 µM (active),1.42 µM (inactive),2.15 µM (inactive),,1.39 µM (inactive),0.687 µM (active),1.88 µM (inactive),2.19 µM (inactive),0.105 µM (active),0.851 µM (active),1.98 µM (inactive),1.41 µM (inactive),12.4 µM (inactive),3.41 µM (inactive),2.21 µM (inactive),1.69 µM (inactive),1.66 µM (inactive),3.21 µM (inactive),2.16 µM (inactive),0.527 µM (active)
Cc1cc(O)cc2c1c(=O)c1ccccc1n2C,> 100 µM (inactive),> 100 µM (inactive),,66.8 µM (inactive),> 100 µM (inactive),> 100 µM (inactive),> 100 µM (inactive),38.9 µM (inactive),5.33 µM (inactive),34.8 µM (inactive),> 100 µM (inactive),> 100 µM (inactive),,62.5 µM (inactive),34.8 µM (inactive),46.9 µM (inactive),54.1 µM (inactive),> 100 µM (inactive),> 100 µM (inactive),75.2 µM (inactive)
O=C1C[C@@H](Sc2ccccc2)C2(OCCO2)C2ON3CCCC[C@H]3[C@H]12 (stereo partly specified),7.36 µM (inactive),12.1 µM (inactive),,1.67 µM (inactive),5.48 µM (inactive),6.32 µM (inactive),12.6 µM (inactive),9.38 µM (inactive),9.66 µM (inactive),2.15 µM (inactive),17.7 µM (inactive),7.36 µM (inactive),19.4 µM (inactive),7.74 µM (inactive),10.5 µM (inactive),6.34 µM (inactive),4.73 µM (inactive),6.03 µM (inactive),3.75 µM (inactive),41.5 µM (inactive)
CCOP(=O)(OCC)C(NC(=O)C(C(F)(F)F)C(F)(F)F)c1ccccc1 (stereo unspecified),> 100 µM (inactive),> 100 µM (inactive),> 100 µM (inactive),24.6 µM (inactive),> 100 µM (inactive),97.9 µM (inactive),> 100 µM (inactive),> 100 µM (inactive),> 100 µM (inactive),,> 100 µM (inactive),> 100 µM (inactive),> 100 µM (inactive),> 100 µM (inactive),> 100 µM (inactive),> 100 µM (inactive),> 100 µM (inactive),> 100 µM (inactive),49.9 µM (inactive),> 100 µM (inactive)
O=C(NO)c1ccc(C(=O)NO)cc1,> 100 µM (inactive),34.5 µM (inactive),9.86 µM (inactive),42.7 µM (inactive),> 100 µM (inactive),> 100 µM (inactive),43.6 µM (inactive),> 100 µM (inactive),> 100 µM (inactive),,> 100 µM (inactive),> 100 µM (inactive),> 100 µM (inactive),81.7 µM (inactive),> 100 µM (inactive),76 µM (inactive),1.25 µM (inactive),> 100 µM (inactive),39.3 µM (inactive),12 µM (inactive)
CN(C)c1ccc(/C=N\NC(=O)c2ccccc2Nc2ccccc2C(=O)N/N=C/c2ccc(N(C)C)cc2)cc1,> 100 µM (inactive),> 100 µM (inactive),> 100 µM (inactive),,> 100 µM (inactive),> 100 µM (inactive),23.3 µM (inactive),> 100 µM (inactive),> 100 µM (inactive),,28.5 µM (inactive),> 100 µM (inactive),90.4 µM (inactive),57 µM (inactive),> 100 µM (inactive),> 100 µM (inactive),> 100 µM (inactive),> 100 µM (inactive),> 100 µM (inactive),> 100 µM (inactive)
CCCN(CCc1ccc(-c2ccccc2)cc1)CCc1ccc2nn[nH]c2c1,13.1 µM (inactive),9.25 µM (inactive),6.71 µM (inactive),,10 µM (inactive),11.6 µM (inactive),13.6 µM (inactive),12.2 µM (inactive),8.51 µM (inactive),11.8 µM (inactive),17.1 µM (inactive),9.44 µM (inactive),4.31 µM (inactive),3.91 µM (inactive),13.1 µM (inactive),11.5 µM (inactive),12.9 µM (inactive),9.23 µM (inactive),9.31 µM (inactive),14.2 µM (inactive)
COC(=O)/C=C1/SC(/C(=C(/[O-])OC)[n+]2ccc3ccccc3c2)=NC1=O,> 100 µM (inactive),> 100 µM (inactive),,> 100 µM (inactive),> 100 µM (inactive),> 100 µM (inactive),21.9 µM (inactive),> 100 µM (inactive),,> 100 µM (inactive),> 100 µM (inactive),> 100 µM (inactive),> 100 µM (inactive),> 100 µM (inactive),> 100 µM (inactive),,67.5 µM (inactive),> 100 µM (inactive),> 100 µM (inactive),> 100 µM (inactive)
CC(Cl)CC(=O)OCC1CCCN2CCCCC12 (stereo unspecified),> 100 µM (inactive),> 100 µM (inactive),> 100 µM (inactive),54.7 µM (inactive),,> 100 µM (inactive),> 100 µM (inactive),> 100 µM (inactive),> 100 µM (inactive),,> 100 µM (inactive),> 100 µM (inactive),> 100 µM (inactive),> 100 µM (inactive),> 100 µM (inactive),> 100 µM (inactive),> 100 µM (inactive),> 100 µM (inactive),> 100 µM (inactive),> 100 µM (inactive)
C#CCOC(=O)c1ccc(OC(C)=O)cc1,,> 100 µM (inactive),> 100 µM (inactive),,> 100 µM (inactive),> 100 µM (inactive),> 100 µM (inactive),> 100 µM (inactive),> 100 µM (inactive),> 100 µM (inactive),> 100 µM (inactive),> 100 µM (inactive),,> 100 µM (inactive),> 100 µM (inactive),> 100 µM (inactive),> 100 µM (inactive),> 100 µM (inactive),> 100 µM (inactive),> 100 µM (inactive)
C[N+](C)(C)CC1CCC(C[N+](C)(C)C)C1=O (stereo unspecified),18.7 µM (inactive),15.5 µM (inactive),8.63 µM (inactive),,7.94 µM (inactive),1.75 µM (inactive),19.6 µM (inactive),4.22 µM (inactive),24.3 µM (inactive),0.2 µM (active),7.28 µM (inactive),17.2 µM (inactive),,9.02 µM (inactive),17.9 µM (inactive),3.3 µM (inactive),9.12 µM (inactive),8.53 µM (inactive),4.34 µM (inactive),23.4 µM (inactive)
C#CCN(Cc1ccc2[nH]c(N)nc(=O)c2c1)c1ccc(C(=O)NC(CCC(=O)O)C(=O)O)cc1 (stereo unspecified),53.5 µM (inactive),5.94 µM (inactive),> 100 µM (inactive),> 100 µM (inactive),62.1 µM (inactive),5.13 µM (inactive),> 100 µM (inactive),> 100 µM (inactive),6.95 µM (inactive),,> 100 µM (inactive),> 100 µM (inactive),> 100 µM (inactive),> 100 µM (inactive),40.4 µM (inactive),10.8 µM (inactive),50.9 µM (inactive),,5.66 µM (inactive),> 100 µM (inactive)
Clc1ccccc1C(c1ccccc1)(c1ccccc1)n1ccnc1 [CLOTRIMAZOLE],8.2 µM (inactive),17.3 µM (inactive),16.5 µM (inactive),,7.57 µM (inactive),7.33 µM (inactive),14.9 µM (inactive),13 µM (inactive),10.7 µM (inactive),6.38 µM (inactive),11.8 µM (inactive),7.03 µM (inactive),16.2 µM (inactive),7.78 µM (inactive),14.4 µM (inactive),15.3 µM (inactive),14.8 µM (inactive),13.3 µM (inactive),6.56 µM (inactive),14.5 µM (inactive)
